In US7223753B2, “Diazabicyclic biaryl derivatives” (Neurosearch A/S, priority 2002, dated 2007):
Structures can show the parent of a compound that is named as a salt.

Biological target: T1, α7-subtype of nicotinic receptors (Rattus norvegicus, UniProt Q05941)
T1 construct: Cerebral cortices from male Wistar rats (150–250 g) are homogenised; from tissue; host or cells: rat cerebral cortex membrane homogenate
Test: In vitro inhibition of 3H-α-bungarotoxine binding in rat brain
Settings: rat cerebral cortex homogenate; 3H-α-bungarotoxine 2 nM; 2 hours at 37° C

T1 sequence (Q05941 23-502): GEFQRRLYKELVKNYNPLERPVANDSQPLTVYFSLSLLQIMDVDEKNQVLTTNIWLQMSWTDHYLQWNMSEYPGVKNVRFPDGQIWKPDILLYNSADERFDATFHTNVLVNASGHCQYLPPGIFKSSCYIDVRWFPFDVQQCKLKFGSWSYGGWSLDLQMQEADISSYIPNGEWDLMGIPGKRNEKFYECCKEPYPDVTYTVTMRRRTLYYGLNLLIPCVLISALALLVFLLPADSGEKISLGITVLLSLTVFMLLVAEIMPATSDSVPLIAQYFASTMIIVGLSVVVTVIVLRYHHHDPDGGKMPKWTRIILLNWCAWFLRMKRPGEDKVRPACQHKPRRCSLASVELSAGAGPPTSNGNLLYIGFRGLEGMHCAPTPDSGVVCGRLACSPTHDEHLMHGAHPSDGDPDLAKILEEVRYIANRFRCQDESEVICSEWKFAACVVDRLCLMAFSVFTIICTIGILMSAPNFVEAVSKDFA

| SMILES | IC50 [nM] |
| --- | --- |
| c1cc(-c2ccc(N3CCN4CCC3CC4)nn2)co1 [Compound 7, 4-(6-Furan-3-yl-pyridazin-3-yl)-1,4-diazabicyclo[3.2.2]nonane fumaric acid salt] | 22 |
| c1c[se]c(-c2ccc(N3CCN4CCC3CC4)nn2)c1 [Compound 5, 4-(6-Selenophen-2-yl-pyridazin-3-yl)-1,4-diazabicyclo[3.2.2]nonane fumaric acid salt] | 6.5 |
| c1ccc(-c2ccc(N3CCN4CCC3CC4)cc2)cc1 [Compound 34, 4-Biphenyl-4-yl-1,4-diazabicyclo[3.2.2]nonane fumaric acid salt] | 24 |
| c1cc(-c2ccc(N3CCN4CCC3CC4)nn2)cs1 [Compound 1, 4-[6-Thien-3-yl-pyridazin-3-yl]-1,4-diazabicyclo[3.2.2]nonane fumaric acid salt] | 38 |
| c1csc(-c2ccc(N3CCN4CCC3CC4)nn2)c1 [Compound 4, 4-(6-Thien-2-yl-pyridazin-3-yl)-1,4-diazabicyclo[3.2.2]nonane fumaric acid salt] | 44 |
